pKi: −log10 of the molar value.
Key:
[1] = test system: A549 adenocarcinoma cells; conditions: coadministered with daunorubicin; cited from earlier work
[2] = molecular target: T1, carbonyl reductase (Homo sapiens, UniProt P16152); conditions: cited from earlier work
T1 sequence (P16152 1-277): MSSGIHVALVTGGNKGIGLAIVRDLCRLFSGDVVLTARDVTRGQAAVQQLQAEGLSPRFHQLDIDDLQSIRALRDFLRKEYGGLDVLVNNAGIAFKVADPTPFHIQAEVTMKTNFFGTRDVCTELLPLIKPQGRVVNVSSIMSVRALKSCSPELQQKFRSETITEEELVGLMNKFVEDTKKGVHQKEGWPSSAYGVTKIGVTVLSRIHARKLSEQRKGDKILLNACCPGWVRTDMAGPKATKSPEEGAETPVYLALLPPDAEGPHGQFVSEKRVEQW

[3] = molecular target: T1, carbonyl reductase; assay: Inhibition of carbonyl reductase by arylcyanooximes (1/rate vs. 1/substrate, menadione and NADPH as varied substrates); format: biochemical; conditions: for pKi: uncompetitive against both coenzyme and carbonyl substrates, range over the six compounds, read-out: Kii (intercept inhibition constant)
Procedure: FIG. 6 describes inhibition patterns seen with inhibitors C1, C2, C3, C4, C5, and C6 wherein KII stands for the intercept inhibition constant.
Six arylcyanooximes (C1, C2, C3, C4, C5, and C6) were tested as possible inhibitors for carbonyl reductase. (See the syntheses described earlier in this disclosure). […] See FIGS. 5 A and B, portraying the 1/rate vs. 1/substrate concentration taken with C5, with menadione and NADPH as the varied substrates, respectively. […] Therefore, while compositions comprising C5 are preferred, compositions comprising C1, C2, C3, C4, and/or C6 are also included in embodiments of the invention and are also expected by the inventors to be beneficial in the methods of the invention.

Compound | effect on cytotoxicity of daunorubicin [1] | potency as inhibitor of human carbonyl reductase (in words) [2] | inhibition pattern against the carbonyl substrate [3] | inhibition pattern against both coenzyme and carbonyl substrates [3] | pKi [3] | melting point | potency as inhibitor of carbonyl reductase (in words) [3] | inhibition pattern against NADPH ([3]; NADPH as varied substrate (FIG. 5B)) | inhibition pattern against menadione ([3]; menadione as varied substrate (FIG. 5A))
CNc1ncnc2c1c(-c1cccc(O)c1)cn2C(C)C [3-(7-isopropyl-4-(methylamino)-7H-pyrrolo[2,3-d]pyrimidin-5-yl)phenol] | enhance the cytotoxicity of daunorubicin | potent inhibitor |  |  |  |  |  |  | 
N#CC(=NO)c1ccc(F)cc1F [C1, oximino(2,4-difluorophenyl)acetonitrile] |  |  | uncompetitive inhibitors | uncompetitive inhibitors | 4.14 to 4.97 | 64 to 65 °C |  |  | 
N#CC(=NO)c1c(F)cccc1F [C2, oximino(2,6-difluorophenyl)acetonitrile] |  |  | uncompetitive inhibitors | uncompetitive inhibitors | 4.14 to 4.97 | 99 to 100 °C |  |  | 
N#CC(=NO)c1cc(F)ccc1F [C3, oximino(2,5-difluorophenyl)acetonitrile] |  |  | uncompetitive inhibitors | uncompetitive inhibitors | 4.14 to 4.97 | 64 to 67 °C |  |  | 
N#CC(=NO)c1c(F)cccc1Cl [C4, oximino(2-chloro-6-fluorophenyl)acetonitrile] |  |  | uncompetitive inhibitors | uncompetitive inhibitors | 4.14 to 4.97 |  |  |  | 
N#CC(=NO)c1ccc(Cl)cc1Cl [C5, oximino(2,4-dichlorophenyl)acetonitrile] |  |  | uncompetitive inhibitors | uncompetitive inhibitors | 4.14 to 4.97 | 151 °C | potent inhibitor | uncompetitive inhibitor | uncompetitive inhibitor
N#CC(=NO)c1c(Cl)cccc1Cl [C6, oximino(2,6-dichlorophenyl)acetonitrile] |  |  | uncompetitive inhibitors | uncompetitive inhibitors | 4.14 to 4.97 | 94 to 96 °C |  |  | 

— US7727967B2, “Cyanooxime inhibitors of carbonyl reductase and methods of using said inhibitors in treatments involving anthracyclines” (Boise State University, priority 2006, dated 2010)
